Reference: ChEMBL document CHEMBL1201862, “PubChem BioAssay data set” (2004)
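Five compound concentrations were applied to cells in 96-well plates for 48 hours; endpoints were derived by simple linear interpolation of the resulting dose-response curve. GI50 marks 50% less growth.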 Activity calls are given as the source filed them. No stated cut-off is given here; in the data, active = GI50 up to about 1.1 µM and inactive = higher.

Columns and labels:
Test in all cases: NCI tumour cell line growth inhibition, 48 h
[1] = system: UACC-62
[2] = system: OVCAR-3
[3] = system: HCT-116
[4] = system: SN12C
[5] = system: EKVX
[6] = system: M14
[7] = system: KM12
[8] = system: LOX IMVI
[9] = system: 786-0
[10] = system: OVCAR-8
[11] = system: SF-268
[12] = system: MCF7
[13] = system: OVCAR-5
[14] = system: SK-MEL-28
[15] = system: Malme-3M
[16] = system: MDA-N
[17] = system: A549
[18] = system: SK-MEL-5
[19] = system: SK-OV-3
[20] = system: NCI-H226

Measured: GI50

Cc1cc(C(C)(C)C)cc(CNC2CCCCC2)c1O
inactive: [1] 16 µM | [2] 15.6 µM | [3] 15.4 µM | [4] 15.8 µM | [5] 15.7 µM | [6] 15.7 µM | [7] 19.9 µM | [8] 16 µM | [9] 16.2 µM | [10] 17.3 µM | [11] 16.1 µM | [12] 18.1 µM | [13] 16.2 µM | [14] 16.7 µM | [15] 14.3 µM | [16] 16.3 µM | [17] 18.4 µM | [18] 17 µM | [19] 20 µM

N=c1nc(N)nc(N)n1-c1ccc(S(N)(=O)=O)cc1
inactive: [1] > 100 µM | [2] > 100 µM | [3] > 100 µM | [4] > 100 µM | [5] > 100 µM | [6] > 100 µM | [7] > 100 µM | [8] > 100 µM | [9] > 100 µM | [10] > 100 µM | [11] > 100 µM | [20] > 100 µM | [13] > 100 µM | [14] > 100 µM | [15] > 100 µM | [16] > 100 µM | [17] > 100 µM | [18] > 100 µM

Cc1c[n+]([O-])c2ccccc2[n+]1[O-]
inactive: [1] > 100 µM | [2] > 100 µM | [3] > 100 µM | [4] > 100 µM | [5] > 100 µM | [6] > 100 µM | [7] > 100 µM | [8] > 100 µM | [9] > 100 µM | [10] > 100 µM | [11] > 100 µM | [12] > 100 µM | [13] > 100 µM | [14] > 100 µM | [15] > 100 µM | [16] > 100 µM | [17] > 100 µM | [18] > 100 µM | [19] > 100 µM

Cn1c(=O)c2c(nc3n(Cc4ccccc4)c(=O)c(NCCBr)cn23)n(C)c1=O
inactive: [1] 26.5 µM | [2] 19.1 µM | [3] 28.8 µM | [4] 32.6 µM | [5] 18.5 µM | [6] 33.1 µM | [7] 63.5 µM | [8] 28.4 µM | [9] 19.3 µM | [10] 14.7 µM | [11] 25.8 µM | [12] 24.4 µM | [20] 19.9 µM | [13] 28.4 µM | [14] 53.5 µM | [16] 57.3 µM | [17] 29.6 µM | [18] 26.2 µM | [19] 25.3 µM

CC(=O)O[C@@H]1[C@@H](O)C2=C3[C@]4(C)[C@@H]1C(C)(C)C(=O)C[C@@H]4[C@]3(O)[C@H](OC(C)=O)[C@@]1(C[C@@H]1C)C2=O
inactive: [1] 13.7 µM | [2] 18.5 µM | [3] 16.1 µM | [4] 18.4 µM | [5] 19.2 µM | [6] 25.2 µM | [7] 16.6 µM | [8] 14.8 µM | [9] 15.6 µM | [10] 18.5 µM | [11] 25.1 µM | [12] 19 µM | [13] 23.7 µM | [14] 16.3 µM | [15] 13.5 µM | [17] 24.2 µM | [18] 19.8 µM | [19] 24.2 µM

O=c1[nH]cnc2cccc(Cl)c12
inactive: [1] > 100 µM | [2] > 100 µM | [3] > 100 µM | [4] > 100 µM | [5] > 100 µM | [6] > 100 µM | [7] > 100 µM | [9] > 100 µM | [10] > 100 µM | [11] > 100 µM | [12] > 100 µM | [20] > 100 µM | [13] > 100 µM | [14] > 100 µM | [15] > 100 µM | [16] > 100 µM | [17] > 100 µM | [18] > 100 µM | [19] > 100 µM

CC1=C(C(=O)c2ccccc2)C23C(=O)N(c4ccccc4)C(=O)C2=C(O)C=CC3(O)N1 (stereo unspecified)
inactive: [1] 20.1 µM | [2] 21.4 µM | [3] 37.9 µM | [4] 30.3 µM | [5] 76.6 µM | [6] 40.2 µM | [7] 23.9 µM | [8] 19.8 µM | [9] 35 µM | [10] 34 µM | [11] 38.6 µM | [12] 38.3 µM | [20] 35 µM | [13] 47.2 µM | [14] 17.3 µM | [15] 25.2 µM | [17] 50.2 µM | [18] 17.6 µM

ClC(Cl)(Cl)C(N1CCN(c2ccccc2)CC1)N1CCN(c2ccccc2)CC1
inactive: [1] > 100 µM | [3] > 100 µM | [4] > 100 µM | [5] > 100 µM | [6] > 100 µM | [7] > 100 µM | [8] > 100 µM | [9] > 100 µM | [10] > 100 µM | [11] > 100 µM | [12] > 100 µM | [20] > 100 µM | [13] > 100 µM | [14] > 100 µM | [15] > 100 µM | [16] > 100 µM | [17] > 100 µM | [18] > 100 µM

CN(/N=C/c1cccs1)c1ccc(Cl)cc1[N+](=O)[O-]
inactive: [1] 47 µM | [2] 39.8 µM | [3] 26.2 µM | [4] 24.5 µM | [5] 32.7 µM | [6] 34.2 µM | [7] 11.4 µM | [9] 59.6 µM | [10] 40.5 µM | [11] 83.4 µM | [12] 18 µM | [20] 19.8 µM | [14] 78.5 µM | [16] 3.84 µM | [17] 30.3 µM | [18] 36.9 µM | [19] 40.8 µM

N=c1sc(N2CCOCC2)nn1CC(=O)c1ccccc1
inactive: [1] > 100 µM | [2] 66.5 µM | [3] > 100 µM | [4] > 100 µM | [5] > 100 µM | [6] > 100 µM | [7] > 100 µM | [9] > 100 µM | [10] > 100 µM | [11] > 100 µM | [12] 53.5 µM | [20] > 100 µM | [13] > 100 µM | [14] > 100 µM | [15] > 100 µM | [16] > 100 µM | [17] > 100 µM | [18] > 100 µM | [19] > 100 µM

O=C(O)CCCOc1cc(-c2ccccc2F)nc2cc3c(cc12)OCO3
inactive: [1] 6.17 µM | [4] 19.3 µM | [5] > 100 µM | [6] 3.73 µM | [7] 4.19 µM | [8] 4.51 µM | [9] 6.38 µM | [10] 5.66 µM | [12] 5.35 µM | [13] 8.32 µM | [14] 7.89 µM | [15] 7.38 µM | [16] 1.72 µM | [17] 5.77 µM | [19] 6.11 µM

CCOC(=O)c1c(NNc2ccccc2)nc2ccccc2c1-c1ccccc1
inactive: [1] 16.6 µM | [2] 21.1 µM | [3] 21.8 µM | [4] 30.6 µM | [5] 50.2 µM | [6] 27.3 µM | [7] 31.4 µM | [8] 20.2 µM | [9] 31.7 µM | [10] 20.4 µM | [11] 31.1 µM | [20] 28.2 µM | [13] 56.1 µM | [14] 34 µM | [15] 29.1 µM | [17] 34.5 µM | [18] 20.4 µM | [19] 65.5 µM

CCCC(=O)NC(Nc1ccc(S(=O)(=O)Nc2nc(C)cc(C)n2)cc1)(C(F)(F)F)C(F)(F)F
inactive: [1] > 100 µM | [2] > 100 µM | [3] > 100 µM | [4] > 100 µM | [5] > 100 µM | [6] > 100 µM | [7] > 100 µM | [8] > 100 µM | [9] > 100 µM | [10] > 100 µM | [11] > 100 µM | [20] > 100 µM | [13] > 100 µM | [14] > 100 µM | [15] > 100 µM | [16] > 100 µM | [17] > 100 µM | [18] > 100 µM | [19] > 100 µM

Cc1cccc(NC2=NCCO2)c1Cl
inactive: [1] > 100 µM | [3] > 100 µM | [4] > 100 µM | [5] > 100 µM | [6] > 100 µM | [7] > 100 µM | [9] > 100 µM | [10] > 100 µM | [11] > 100 µM | [12] > 100 µM | [20] > 100 µM | [13] > 100 µM | [14] > 100 µM | [15] > 100 µM | [17] > 100 µM | [18] > 100 µM | [19] > 100 µM

COCn1cnc2c(=O)n(-c3ccc(OC)cc3)c(=S)n(-c3ccc(OC)cc3)c21
inactive: [1] > 100 µM | [2] > 100 µM | [3] > 100 µM | [4] > 100 µM | [5] > 100 µM | [6] > 100 µM | [7] > 100 µM | [8] > 100 µM | [9] > 100 µM | [10] > 100 µM | [11] > 100 µM | [12] > 100 µM | [20] > 100 µM | [13] > 100 µM | [14] > 100 µM | [17] > 100 µM | [18] > 100 µM | [19] > 100 µM
